Measurements as given in patent publication US6653311B1, “5-lipoxygenase inhibitors: (2-azinylamino) quinone derivatives” (Board of Supervisors of Louisiana State University, priority 2002, dated 2003).
Values belong to the compound of their own block, whether it stands above or below them.

Experiments:
COX-1 = COX-1 (Homo sapiens, UniProt P23219); experiment: In vitro inhibition of COX-1 activity; conditions: read-out: COX-1 percent inhibition
Text: (§1) Percent inhibition mean values ±SD from at least three individual determinations are shown.

5-lipoxygenase (5-LO) = target: T1, 5-lipoxygenase (5-LO) (Oryctolagus cuniculus, UniProt G1SNX0); experiment: Radioisotopic assay of 5-LO activity (LTB4 formation from 14C-arachidonic acid) in rabbit peritoneal PMNL stimulated with A-23187; format: cell-based; conditions: for inhibition at 1 µM: rabbit peritoneal neutrophils (PMNL), mean ± s.d. of three experiments in duplicate, read-out: % Inhibition (percent inhibition of LTB4 formation); for in vitro 5-LO activity in words: peritoneal PMNL
T1 construct: Polymorphonuclear leukocytes (PMNLs) were purified from rabbits by glycogen-intraperitoneal elicited intraperitoneal recruitment; endogenous in cells; host or cells: rabbit peritoneal polymorphonuclear leukocytes (PMNL), glycogen-elicited
T1 sequence (G1SNX0 1-674): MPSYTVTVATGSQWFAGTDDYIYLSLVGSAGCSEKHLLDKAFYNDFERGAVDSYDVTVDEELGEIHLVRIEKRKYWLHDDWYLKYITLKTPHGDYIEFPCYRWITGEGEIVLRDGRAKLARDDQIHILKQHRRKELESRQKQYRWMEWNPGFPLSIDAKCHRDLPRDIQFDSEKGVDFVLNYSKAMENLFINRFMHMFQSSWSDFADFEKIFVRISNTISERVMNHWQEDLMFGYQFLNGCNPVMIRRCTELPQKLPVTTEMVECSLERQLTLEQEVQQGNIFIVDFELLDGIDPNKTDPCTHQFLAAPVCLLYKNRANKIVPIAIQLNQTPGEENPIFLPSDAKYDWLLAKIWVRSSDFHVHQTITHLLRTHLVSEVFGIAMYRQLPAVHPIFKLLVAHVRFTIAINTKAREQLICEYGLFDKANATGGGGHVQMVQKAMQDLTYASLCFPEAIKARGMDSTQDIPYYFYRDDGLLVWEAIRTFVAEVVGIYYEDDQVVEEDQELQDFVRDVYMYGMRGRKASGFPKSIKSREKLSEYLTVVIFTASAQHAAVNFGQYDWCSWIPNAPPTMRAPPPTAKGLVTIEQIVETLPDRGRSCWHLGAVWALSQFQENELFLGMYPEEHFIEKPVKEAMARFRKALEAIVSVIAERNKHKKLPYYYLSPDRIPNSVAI
Text: The 5-LO enzyme, which is found primarily in cells of myeloid origin such as polymorphonuclear leukocytes (“PMNL”), eosinophils, and macrophages, catalyzes the first step of the biochemical pathway in which arachadonic acid (“AA”) is,converted into LTA4. […] To test the inhibition of the quinone derivatives on the activity of 5-LO rabbit polymorphonuclear leucocytes (PMNLs) were used.
Polymorphonuclear leukocytes (PMNLs) were purified from rabbits by glycogen-intraperitoneal elicited intraperitoneal recruitment, as descrited in T. Yatabe et al., “Studies on 5-lipoxygenase inhibitors: I. Synthesis and 5-lipoxygenase inhibitory activity of novel hydroxanic acid derivatives,” chem. Pharm. Bull., vol. 46, pp. 966-972 (1998). An intraperitoneal injection of 300 mL of 0.1% (w/v) glycogen in sterile saline was administered 6 h before the rabbits were sacrificed by an intravascular injection of Nembutal. Peritoneal exudates were collected in 5 μM EGTA, and residual red cells were removed by lysis in ammonium chloride. These cell preparations were obtained with greater than 96% purity, as assessed by Wright-Giemsa staining and greater than 95% viability as assessed by Trypan blue exclusion.
PMNL cells in suspension were pre-incubated for 20 min at room temperature with ^14C-labeled arachadonic acid (AA) and diluted to 3000 cells μL^−1. Thereafter, the calcium ionophore A-23187 (1 μg/mL) was added to stimulate LTB4 production, and the cells further incubated for 15 min under stirring at 37° C. After incubation, the aqueous samples were successively shaken with a mixture of chloroform/methanol/formic acid (12:12:1) for 30 sec and then with chloroform for 10 sec. Organic phases containing LTB4, 5-HPETE (5-hydroperoxyeicosatetraenoic acid), diHPETEs (dihydroperoxyeicosatetraenoic acids), and prostaglandins (PGs) were pooled, evaporated to dryness under nitrogen and dissolved into a small amount of chloroform-MeOH (1:1). Separation of the 5-LO metabolites was performed by thin layer chromatography (TLC) on silica gel G plates developed in diethyl ether-hexane-acetic acid (60:40:1, v/v/v).
Bands containing 5-lipoxygenase (5-LO) metabolites were scraped from the TLC plates, and ^14C levels were quantitatively measured by liquid scintillation. 5-LO activity was an obtained from the amount of ^14C-arachidonic acid converted into LTB4 after the prelabeled PMNL cells were stimulated to produce LTB4 by the calcium ionophore as described above. IC50 was calculated as the concentration of the 5-LO antagonist that produced 50% inhibition of the metabolite conversion.
[…] IC50 values, calculated as theconcentration of test compound required to cause 50% inhibition of LTB4 formation, were also determined for some representative examples. […] These compounds, in general, correspond to compounds bearing the more lipophilic quinone fragments. […] See S. Ohkawa et al., “Dual Inhibition of Thromboxane A2 Synthetase and 5-Lipoxygenase with Scavenging Activity of Active Oxygen Species. Synthesis of a Novel Series of (3-Pyridylmethyl)benzoquinone Derivatives,” J. Med. Chem., vol. 34, pp. 267-276 (1991).

[1] = system: arachidonic acid-induced ear inflammation in mice; experiment: Arachidonic acid-induced ear inflammation in mice (AAE test); format: in vivo; conditions: mice, topical
5-LO = target: T2, 5-LO (Rattus norvegicus, UniProt P12527); experiment: 5-LO inhibition by radioimmunoassay (RIA) in rat peritoneal PMNL; conditions: inhibitors at 'AM final concentration' [sic], mean ± SD
T2 sequence (P12527 1-673): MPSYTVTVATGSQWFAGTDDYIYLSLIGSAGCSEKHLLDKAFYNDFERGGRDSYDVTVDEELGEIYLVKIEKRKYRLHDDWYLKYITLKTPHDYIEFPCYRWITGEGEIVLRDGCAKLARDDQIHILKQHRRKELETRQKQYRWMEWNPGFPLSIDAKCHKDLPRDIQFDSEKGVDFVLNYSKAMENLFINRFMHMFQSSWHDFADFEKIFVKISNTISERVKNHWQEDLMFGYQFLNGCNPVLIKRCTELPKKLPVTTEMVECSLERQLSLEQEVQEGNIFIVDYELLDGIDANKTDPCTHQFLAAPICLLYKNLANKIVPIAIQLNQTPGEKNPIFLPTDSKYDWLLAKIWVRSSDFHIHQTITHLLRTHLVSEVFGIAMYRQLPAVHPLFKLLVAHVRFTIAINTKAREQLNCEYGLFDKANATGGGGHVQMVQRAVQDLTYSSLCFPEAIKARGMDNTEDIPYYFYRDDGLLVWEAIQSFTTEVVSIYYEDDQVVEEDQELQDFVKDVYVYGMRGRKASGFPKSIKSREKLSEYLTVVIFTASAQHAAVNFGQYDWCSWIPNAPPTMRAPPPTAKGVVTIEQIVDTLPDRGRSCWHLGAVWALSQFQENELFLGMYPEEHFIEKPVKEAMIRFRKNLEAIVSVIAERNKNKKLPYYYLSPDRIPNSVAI
Text: as §1

[2] = Mus musculus, 250 μg/ear, read-out: % inhibition of AA-induced ear inflammation

Sequence of COX-1 (P23219 24-599): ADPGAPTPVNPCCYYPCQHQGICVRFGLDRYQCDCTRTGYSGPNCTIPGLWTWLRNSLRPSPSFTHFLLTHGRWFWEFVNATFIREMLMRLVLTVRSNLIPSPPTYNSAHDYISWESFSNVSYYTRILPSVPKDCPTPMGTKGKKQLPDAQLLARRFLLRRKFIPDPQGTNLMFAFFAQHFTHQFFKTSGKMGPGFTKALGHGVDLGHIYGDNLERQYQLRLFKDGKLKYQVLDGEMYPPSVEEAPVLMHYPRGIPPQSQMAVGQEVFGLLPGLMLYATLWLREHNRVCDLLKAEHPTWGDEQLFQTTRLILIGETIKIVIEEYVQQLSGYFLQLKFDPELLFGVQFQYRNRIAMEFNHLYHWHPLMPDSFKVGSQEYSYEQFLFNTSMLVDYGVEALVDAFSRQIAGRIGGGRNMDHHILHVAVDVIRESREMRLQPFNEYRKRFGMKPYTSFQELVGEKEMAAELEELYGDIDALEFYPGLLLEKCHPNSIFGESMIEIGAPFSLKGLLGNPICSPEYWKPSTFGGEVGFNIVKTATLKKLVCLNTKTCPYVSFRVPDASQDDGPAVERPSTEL

SMILES: CC(=O)Oc1ccccc1C(=O)O [Aspirin, reference compound]
inhibition at 500 µM (COX-1): 83.1 ± 2%

SMILES: CC1=CC(=O)C=C(Nc2ccccn2)C1=O [Compound 4b, 2-Methyl-6-(pyridin-2-ylamino)-[1,4]benzoquinone]
melting point: 162 to 164 °C
inhibition at 1 µM (5-lipoxygenase (5-LO)): 86 ± 2.3%

SMILES: O=C1C=C(Nc2ccccn2)C(=O)C(c2ccccc2)=C1 [Compound 4f, 2-Phenyl-6-(pyridin-2-ylamino)-[1,4]benzoquinone]
melting point: 165 to 167 °C
inhibition at 1 µM (5-lipoxygenase (5-LO)): 64 ± 4.3%

SMILES: COC1=C(OC)C(=O)C(Nc2ccc(Cl)cn2)=C(C)C1=O [Compound 4g, 2-(5-Chloropyridin-2-ylamino)-5,6-dimethoxy-3-methyl-[1,4]benzoquinone]
melting point: 106 to 108 °C

SMILES: O=C1C=C(Nc2ccc(I)cn2)C(=O)c2ccccc21 [Compound 4m, 2-(5-Iodopyridin-2-ylamino)-[1,4]naphthoquinone]
melting point: 245 to 246 °C

SMILES: O=C1C=C(Nc2ncc(Cl)cc2Cl)C(=O)c2ccccc21 [Compound 4n, 2-(3,5-Dichloropyridin-2-ylamino)-[1,4]naphthoquinone]
melting point: 249 to 250 °C

SMILES: O=C1C=C(Nc2nccc(-c3ccccc3)n2)C(=O)c2ccccc21 [Compound 4u, 2-(4-Phenylpyrimidin-2-ylamino)-[1,4]naphthoquinone]
melting point: 229 to 230 °C

SMILES: CC1=CC(=O)C=C(Nc2cnccn2)C1=O [Compound 4v, 2-Methyl-6-(pyrazin-2-ylamino)-[1,4]benzoquinone]
in vitro 5-LO activity in words (5-lipoxygenase (5-LO)): inactive

SMILES: CC1=CC(=O)C(Nc2cnccn2)=CC1=O [Compound 4x, 2-Methyl-5-(pyrazin-2-ylamino)-[1,4]benzoquinone]
melting point: 134 to 136 °C
in vitro 5-LO activity in words (5-lipoxygenase (5-LO)): inactive

SMILES: O=C1C=C(Nc2cnccn2)C(=O)c2ccccc21 [Compound 4y, 2-(Pyrazin-2-ylamino)-[i, 4]naphthoquinone]
melting point: 245 to 247 °C
activation (LTB4 formation) (5-lipoxygenase (5-LO); at 0.1 μM, PMNL): ^d180% activation at 0.1 μM.
in vitro 5-LO activity in words (5-lipoxygenase (5-LO)): agonist activity

SMILES: COc1ccc2c(c1)c(CC(=O)O)c(C)n2C(=O)c1ccc(Cl)cc1 [Indometacin, reference compound]
change in vivo at 250 µg/ear [1, 2]: -26.6 ± 7.3%

SMILES: CC(C)c1ccc2c(c1)c(SC(C)(C)C)c(CC(C)(C)C(=O)O)n2Cc1ccc(Cl)cc1 [MK-886, 3-[3-t-Butylthio-l-(p-chlorobenzyl)-5-isopropylindol-2-yl]-2,2-dimethylpropionic acid, reference compound]
% inhibition of AA-induced ear inflammation ([1]; 250 μg/ear): −25.7 ± 8.1%

SMILES: CC(Cc1ccc(O)c(O)c1)C(C)Cc1ccc(O)c(O)c1 (stereo not shown) [NDGA, reference compound]
5-LO percent inhibition (5-LO): 92.0 ± 4.2%

Now from value to compound, other results behind:

melting point: 102 to 104 °C
SMILES: O=C1C=CC(=O)C(Nc2ccccn2)=C1 [Compound 4a]

inhibition at 1 µM (5-lipoxygenase (5-LO)): 88 ± 5.2%
SMILES: CC1=C(C)C(=O)C(Nc2ccccn2)=CC1=O [Compound 4d, 2,3-Dimethyl-5-(pyridin-2-ylamino)-[1,4]benzoquinone]
change in vivo at 50 µg/ear ([1]; Mus musculus, 50 μg/ear, read-out: % inhibition of AA-induced ear inflammation): -18.3 ± 3.3%
change in vivo at 100 µg/ear ([1]; Mus musculus, 100 μg/ear, read-out: % inhibition of AA-induced ear inflammation): -27.8 ± 3.6%
change in vivo at 250 µg/ear [1, 2]: -35.9 ± 7.4%

melting point: 99 to 100 °C
SMILES: COC1=C(OC)C(=O)C(Nc2ccc(Br)cn2)=C(C)C1=O [Compound 4h, 2-(5-Bromopyridin-2-ylamino)-5,6-dimethoxy-3-methyl-[1,4]benzoquinone]

melting point: 130 to 132 °C
SMILES: CC1=C(Nc2ccccn2)C(=O)c2ccccc2C1=O [Compound 4j, 2-Methyl-3-(pyridin-2-ylamino)-[1,4]naphthoquinone]

melting point: 251 to 252 °C
inhibition at 1 µM (5-lipoxygenase (5-LO)): 24 ± 3.7%
in vitro 5-LO activity in words (5-lipoxygenase (5-LO)): significant inhibition of 5-LO
SMILES: O=C1C=C(Nc2ccc(Cl)cn2)C(=O)c2ccccc21 [Compound 4k, 2-(5-Choropyridin-2-ylamino)-[1,4]naphthoquinone]

melting point: 167 to 169 °C
inhibition at 1 µM (5-lipoxygenase (5-LO)): 56 ± 3.1%
SMILES: CC1=CC(=O)C=C(Nc2ncccn2)C1=O [Compound 4o, 2-Methyl-6-(pyrimidin-2-ylamino)-[l 4]benzoquinone]

melting point: 132 to 134 °C
SMILES: COC1=C(OC)C(=O)C(Nc2ncccn2)=C(C)C1=O [Compound 4q, 2,3-Dimethoxy-5-methyl-6-(pyrimidin-2-ylamino)-[1.4]benzoquinone]
